ChEMBL document CHEMBL3233012, “Synthesis, antimicrobial and cytotoxic activities of pyrimidinyl benzoxazole, benzothiazole and benzimidazole” (Eur J Med Chem, 2014)
≈ marks a conversion by molar mass, not a printed value. Calls of active or inactive are those of the source. The calls are words filed in the database; no cut-off is given here.

What was measured:
Staphylococcus aureus [1] = test: Antimicrobial activity against Staphylococcus aureus at 25 ug/well after 24 hrs by agar well diffusion method; format: functional; settings: read-out: DIZ
Staphylococcus aureus [2] = test: Antimicrobial activity against Staphylococcus aureus at 50 ug/well after 24 hrs by agar well diffusion method; format: functional; settings: read-out: DIZ
Staphylococcus aureus [3] = test: Antimicrobial activity against Staphylococcus aureus at 100 ug/well after 24 hrs by agar well diffusion method; format: functional; settings: read-out: DIZ
Escherichia coli [4] = test: Antimicrobial activity against Escherichia coli at 25 ug/well after 24 hrs by agar well diffusion method; format: functional; settings: read-out: DIZ
Escherichia coli [5] = test: Antimicrobial activity against Escherichia coli at 50 ug/well after 24 hrs by agar well diffusion method; format: functional; settings: read-out: DIZ
Escherichia coli [6] = test: Antimicrobial activity against Escherichia coli at 100 ug/well after 24 hrs by agar well diffusion method; format: functional; settings: read-out: DIZ
Pseudomonas aeruginosa [7] = test: Antimicrobial activity against Pseudomonas aeruginosa at 25 ug/well after 24 hrs by agar well diffusion method; format: functional; settings: read-out: DIZ
Pseudomonas aeruginosa [8] = test: Antimicrobial activity against Pseudomonas aeruginosa at 50 ug/well after 24 hrs by agar well diffusion method; format: functional; settings: read-out: DIZ
Pseudomonas aeruginosa [9] = test: Antimicrobial activity against Pseudomonas aeruginosa at 100 ug/well after 24 hrs by agar well diffusion method; format: functional; settings: read-out: DIZ
Staphylococcus aureus [10] = test: Antimicrobial activity against Staphylococcus aureus ATCC 25923 after 24 hrs by broth dilution method; format: functional
Escherichia coli [11] = test: Antimicrobial activity against Escherichia coli ATCC 25922 after 24 hrs by broth dilution method; format: functional
Aspergillus niger [12] = test: Antimicrobial activity against Aspergillus niger after 24 hrs by broth dilution method; format: functional
Penicillium chrysogenum [13] = test: Antimicrobial activity against Penicillium chrysogenum after 24 hrs by broth dilution method; format: functional
Aspergillus niger [14] = test: Antimicrobial activity against Aspergillus niger at 25 ug/well after 48 hrs by agar well diffusion method; format: functional; settings: for zone of inhibition at 25 µg/disc: read-out: DIZ
Aspergillus niger [15] = test: Antimicrobial activity against Aspergillus niger at 50 ug/well after 48 hrs by agar well diffusion method; format: functional; settings: read-out: DIZ
Aspergillus niger [16] = test: Antimicrobial activity against Aspergillus niger at 100 ug/well after 48 hrs by agar well diffusion method; format: functional; settings: read-out: DIZ
Penicillium chrysogenum [17] = test: Antimicrobial activity against Penicillium chrysogenum at 25 ug/well after 48 hrs by agar well diffusion method; format: functional; settings: for zone of inhibition at 25 µg/disc: read-out: DIZ
Penicillium chrysogenum [18] = test: Antimicrobial activity against Penicillium chrysogenum at 50 ug/well after 48 hrs by agar well diffusion method; format: functional; settings: read-out: DIZ
Penicillium chrysogenum [19] = test: Antimicrobial activity against Penicillium chrysogenum at 100 ug/well after 48 hrs by agar well diffusion method; format: functional; settings: read-out: DIZ
A549 [20] = test: Cytotoxicity against human A549 cells assessed as reduction in cell viability up to 200 uM after 20 hrs by MTT assay; format: functional, cell-based
Pseudomonas aeruginosa [21] = test: Antimicrobial activity against Pseudomonas aeruginosa ATCC 27853 after 24 hrs by broth dilution method; format: functional
A549 [22] = test: Cytotoxicity against human A549 cells assessed as reduction in cell viability after 20 hrs by MTT assay; format: functional, cell-based

SMILES | zone of inhibition at 25 µg/disc (Staphylococcus aureus [1]) [mm] | zone of inhibition at 50 µg/disc (Staphylococcus aureus [2]) [mm] | zone of inhibition at 100 µg/disc (Staphylococcus aureus [3]) [mm] | zone of inhibition at 25 µg/disc (Escherichia coli [4]) [mm] | zone of inhibition at 50 µg/disc (Escherichia coli [5]) [mm] | zone of inhibition at 100 µg/disc (Escherichia coli [6]) [mm] | zone of inhibition at 25 µg/disc (Pseudomonas aeruginosa [7]) [mm] | zone of inhibition at 50 µg/disc (Pseudomonas aeruginosa [8]) [mm] | zone of inhibition at 100 µg/disc (Pseudomonas aeruginosa [9]) [mm] | zone of inhibition at 25 µg/disc (Aspergillus niger [14]) [mm] | zone of inhibition at 50 µg/disc (Aspergillus niger [15]) [mm] | zone of inhibition at 100 µg/disc (Aspergillus niger [16]) [mm] | zone of inhibition at 25 µg/disc (Penicillium chrysogenum [17]) [mm] | zone of inhibition at 50 µg/disc (Penicillium chrysogenum [18]) [mm] | zone of inhibition at 100 µg/disc (Penicillium chrysogenum [19]) [mm] | Activity (A549 [20]) | also measured
O=C(O)c1cn(C2CC2)c2cc(N3CCNCC3)c(F)cc2c1=O [CIPROFLOXACIN] | 22 | 24 | 27 | 30 | 35 | 38 | 25 | 28 | 30 | – | – | – | – | – | – | – | MIC (Staphylococcus aureus [10]; ATCC 25923, 24 h): 12.5 µg/mL (≈ 37.7 µM); MIC (Escherichia coli [11]; ATCC 25922, 24 h): 12.5 µg/mL (≈ 37.7 µM); MIC (Aspergillus niger [12]): inactive; MIC (Penicillium chrysogenum [13]): inactive
Cc1cc(Sc2nc3ccccc3[nH]2)nc(SCc2nc3ccccc3[nH]2)n1 | 13 | 16 | 19 | 17 | 20 | 22 | 14 | 17 | 18 | 14 | 15 | 17 | 15 | 17 | 19 | inactive | –
Cc1cc(Cl)nc(SCc2nc3ccccc3s2)n1 | 6 | 4 | 16 | 7 | 10 | 14 | 7 | 9 | 10 | – | 8 | 10 | 7 | 9 | 11 | inactive | diameter of the inhibition zone (DIZ) (Aspergillus niger [14]): inactive
Cc1cc(Nc2nc3ccccc3[nH]2)nc(SCc2nc3ccccc3[nH]2)n1 | 15 | 17 | 20 | 19 | 22 | 25 | 16 | 19 | 21 | 20 | 23 | 25 | 29 | 31 | 33 | inactive | –
Cc1cc(Cl)nc(SCc2nc3ccccc3o2)n1 | 5 | 7 | 8 | 6 | 8 | 11 | 5 | 7 | 8 | – | 7 | 9 | – | 8 | 10 | inactive | diameter of the inhibition zone (DIZ) (Aspergillus niger [14]): inactive; diameter of the inhibition zone (DIZ) (Penicillium chrysogenum [17]): inactive
Cc1cc(Sc2nc3ccccc3o2)nc(SCc2nc3ccccc3o2)n1 | 9 | 11 | 14 | 10 | 15 | 17 | 10 | 11 | 14 | 8 | 10 | 12 | 9 | 11 | 13 | inactive | –
CC(=O)N1CCN(c2ccc(OCC3COC(Cn4ccnc4)(c4ccc(Cl)cc4Cl)O3)cc2)CC1 (stereo not drawn) [KETOCONAZOLE] | – | – | – | – | – | – | – | – | – | 31 | 33 | 36 | 35 | 36 | 38 | – | MIC (Staphylococcus aureus [10]): inactive; MIC (Escherichia coli [11]): inactive; MIC (Pseudomonas aeruginosa [21]): inactive; MIC (Aspergillus niger [12]): 6.25 µg/mL (≈ 11.8 µM); MIC (Penicillium chrysogenum [13]): 12.5 µg/mL (≈ 23.5 µM)
Cc1cc(Nc2nc3ccccc3o2)nc(SCc2nc3ccccc3o2)n1 | 10 | 13 | 17 | 12 | 17 | 20 | 11 | 14 | 17 | 15 | 17 | 19 | 19 | 21 | 24 | inactive | –
Cc1cc(Sc2nc3ccccc3s2)nc(SCc2nc3ccccc3s2)n1 | 10 | 12 | 16 | 14 | 17 | 20 | 13 | 15 | 16 | 10 | 12 | 15 | 12 | 13 | 15 | – | inhibition (A549 [22]): Dose-dependent effect; IC50 (A549 [22]; A549, 20 h): 70 µM
Cc1cc(Cl)nc(SCc2nc3ccccc3[nH]2)n1 | 8 | 10 | 12 | 8 | 13 | 16 | 8 | 10 | 12 | 7 | 9 | 11 | 8 | 10 | 12 | inactive | –
